Results as given in patent US6946483B2, “Aminoalkenylbenzoyl-benzofuran or benzothiophene, method for preparing same and compositions containing same” (Sanofi-Aventis, priority 2000, dated 2005).
Structures can show the parent of a compound that is named as a salt.

| Structure (SMILES) | melting point |
| --- | --- |
| CCCCc1oc2cc(C)c(C(=O)OC(C)C)cc2c1C(=O)c1ccc(/C=C\CN(CCCC)CCCC)cc1.Cl | 129 °C |
| CCCCc1oc2ccc(C(=O)OC)cc2c1C(=O)c1ccc(C#CCN2CCCCC2)cc1 (as salt: hydrochloride) [Example 34] | 153 to 154 °C |
| CCCCNCC#Cc1ccc(C(=O)c2c(CCCC)oc3ccc(C(=O)OC(C)C)cc23)cc1 (as salt: hydrochloride) [Example 36] | 166 to 167 °C |
| CCCCc1oc2cc(C(=O)OC(C)C)ccc2c1C(=O)c1ccc(/C=C/CN(CCCC)CCCC)cc1 (as salt: hydrochloride) [Example 38] | 110 to 114 °C |
| CCCCN(C/C=C/c1ccc(C(=O)c2c(CC(C)C)oc3ccc(C(=O)OC(C)C)cc23)cc1)CCCC (as salt: hydrochloride) [Example 40] | 147 to 150 °C |
| CCCCN(C/C=C/c1ccc(C(=O)c2c(C3CCCCC3)oc3ccc(C(=O)OC(C)C)cc23)cc1)CCCC (as salt: hydrochloride) [Example 43] | 171 to 173 °C |
| CCCCN(C/C=C/c1ccc(C(=O)c2c(C)oc3ccc(C(=O)OC(C)C)cc23)cc1)CCCC (as salt: hydrochloride) [Example 50] | 189 to 191 °C |
| CCCCc1oc2ccc(C(=O)OC(C)C)cc2c1C(=O)c1ccc(/C=C/CN(CCCC)CCCC)cc1 (as salt: oxalate) [Example 39] | 112 °C |
| CCCCc1oc2ccc(C(=O)OC(C)C)cc2c1C(=O)c1cc(C)c(/C=C/CN(CCCC)CCCC)c(C)c1 (as salt: oxalate) [Example 44] | 110 to 115 °C |
| CCCCc1oc2ccc(C(=O)OC(C)C)cc2c1C(=O)c1cc(Cl)c(/C=C/CN(CCCC)CCCC)c(Cl)c1 (as salt: oxalate) [Example 51] | 91 to 93 °C |
| CCCCc1oc2c(C(=O)OC(C)C)cccc2c1C(=O)c1ccc(/C=C/CN(CCCC)CCCC)cc1 (as salt: oxalate) [Example 52] | 120 °C |
